pIC50: −log10 of the molar value.
How the values were obtained:
[1] = Microsomal stability assay, human liver microsomes; format: in vitro ADME; details: pH 7.4, 1 μM compound, 0.5 mg/mL protein, 37° C., read-out: HLM +/− NADPH: Clint (μL/min/mg protein)
Procedure: Microsomal stability assay is a widely used in vitro model to characterize the metabolic conversion by phase I enzymes, such as cytochrome P450 (CYP) enzymes. Since metabolism is known to be highly variable in different species, microsomal stability assay is commonly run in multiple species. Metabolic stability of testing compound can be evaluated using human, rat, mouse, or other animal liver or intestine microsomes to predict intrinsic clearance.
The assay was carried out in 96-well microtiter plates at 37° C. Reaction mixtures (25 μL) contained a final concentration of 1 μM test compound, 0.5 mg/mL liver microsomes protein, and 1 mM NADPH and/or 1 mM UDPGA (with alamethicin) in 100 mM potassium phosphate, pH 7.4 buffer with 3 mM MgCl2. The incubation was done with N=1, but duplicate incubation at each time point can be prepared if necessary. At each of the time points (for example, 0, 15, 30, and 60 minutes), 150 μL of quench solution (100% acetonitrile with 0.1% formic acid) with internal standard was transferred to each well. Besides the zero minute controls, mixtures containing the same components except the NADPH can also be prepared as the negative control. Verapamil was included as a positive control to verify assay performance. Plates were sealed, vortexed, and centrifuged at 4° C. for 15 minutes at 4000 rpm. The supernatant is transferred to fresh plates for LC/MS/MS analysis.
Summarized conditions: [Compound]=[…], [LM]=0.5 mg/mL, [NADPH]=1 mM and/or [UDPGA]=1 mM, Buffer=100 mM Potassium Phosphate, pH 7.4 with 3 mM MgCl2, Time=0, 15, 30, and 60 min, and Temperature=37° C.
All samples were analyzed on LC/MS/MS using an AB Sciex API 4000 instrument, coupled to a Shimadzu LC-20AD LC Pump system. Analytical samples were separated using a Waters Atlantis T3 dC18 reverse phase HPLC column (20 mm×2.1 mm) at a flow rate of 0.5 mL/min. The mobile phase consisted of 0.1% formic acid in water (solvent A) and 0.1% formic acid in 100% acetonitrile (solvent B).
The extent of metabolism is calculated as the disappearance of the test compound, compared to the 0-min time incubation. Initial rates are calculated for the compound concentration and used to determine half-life (t½) values and subsequently, the intrinsic clearance (Clint). Clint=(0.693)(1/t½ (min))(g of liver/kg of body weight)(mL incubation/mg of microsomal protein)(45 mg of microsomal protein/g of liver weight)

androgen receptor (AR) = target: T1, androgen receptor (AR) (Homo sapiens, UniProt P10275, T878A); assay: Androgen-induced PSA (6.1 kb)-luciferase reporter assay in LNCaP cells; format: cell-based; details: LNCaP cells transfected with PSA (6.1 kb)-luciferase reporter, R1881 1 nM, 24 h; read-out: PSA-Luc IC50 Range
T1 construct: LNCaP cells were transiently transfected with the PSA (6.1 kb)-luciferase reporter for 24 h; endogenous in cells; host or cells: LNCaP
T1 sequence (P10275 1-920 T878A): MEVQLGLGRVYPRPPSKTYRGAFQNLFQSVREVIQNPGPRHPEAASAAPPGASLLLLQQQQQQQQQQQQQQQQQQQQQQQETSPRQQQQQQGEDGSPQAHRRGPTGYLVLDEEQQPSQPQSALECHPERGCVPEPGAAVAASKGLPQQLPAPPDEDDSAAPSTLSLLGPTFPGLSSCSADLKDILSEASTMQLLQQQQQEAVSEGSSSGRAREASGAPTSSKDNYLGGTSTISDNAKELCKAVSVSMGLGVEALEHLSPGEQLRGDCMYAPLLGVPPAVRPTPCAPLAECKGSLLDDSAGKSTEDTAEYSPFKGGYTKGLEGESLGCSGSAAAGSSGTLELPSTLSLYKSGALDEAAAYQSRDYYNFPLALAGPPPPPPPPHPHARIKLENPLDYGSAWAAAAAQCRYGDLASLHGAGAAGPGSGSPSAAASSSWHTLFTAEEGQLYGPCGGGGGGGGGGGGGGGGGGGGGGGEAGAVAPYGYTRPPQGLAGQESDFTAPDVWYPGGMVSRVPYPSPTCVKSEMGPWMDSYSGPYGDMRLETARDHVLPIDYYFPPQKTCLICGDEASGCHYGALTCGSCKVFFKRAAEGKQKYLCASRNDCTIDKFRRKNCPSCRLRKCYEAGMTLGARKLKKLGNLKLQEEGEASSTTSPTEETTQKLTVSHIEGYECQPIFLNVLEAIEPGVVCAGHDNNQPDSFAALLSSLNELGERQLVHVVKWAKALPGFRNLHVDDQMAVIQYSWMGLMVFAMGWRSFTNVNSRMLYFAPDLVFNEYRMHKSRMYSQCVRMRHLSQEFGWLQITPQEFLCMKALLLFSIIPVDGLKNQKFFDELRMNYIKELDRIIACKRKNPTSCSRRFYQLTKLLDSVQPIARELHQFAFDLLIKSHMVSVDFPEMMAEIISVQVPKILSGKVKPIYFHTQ
Procedure: The PSA (6.1 kb)-luciferase reporter contains functional AREs (androgen response elements) to which AR binds in response to androgen to induce luciferase activity.
Cells were lysed using Passive Lysis Buffer (Promega) and then collected into V-bottom 96-well tissue culture plates. Lysates were centrifuged at 4° C. for 5 minutes at 3000 rpm. To measure luminescence of LNCaP cell lysates the Firefly Luciferase Assay System (Promega) was employed, according to manufacturer's protocol. Relative luminescence units (RLU) in cell lysates were detected for 10 seconds using Promega GloMax-Multi Detection Luminometer (Promega). Values were normalized to protein content. GraphPad Prism graphing software was used to calculate IC50 values.
Comparisons between treatment and control groups were compared using Two-Way ANOVA with post-hoc Dunnett's and Tukey's tests. Differences were considered statistically significant at P values less than 0.05.

SMILES | microsomal CLint at 1 μM [1] [µL/min/mg] | pIC50 (androgen receptor (AR))
CC(C)(c1ccc(OCc2ocnc2S(C)(=O)=O)cc1)c1cc(Cl)c(OCCC(F)(F)F)c(Cl)c1 [Compound A54, 5-((4-(2-(3,5-Dichloro-4-(3,3,3-trifluoropropoxy)phenyl)propan-2-yl)phenoxy)methyl)-4-(methylsulfonyl)oxazole] | < 12 | 5.70 to 6.30
CC(C)(c1ccc(OCc2ncncc2NS(C)(=O)=O)cc1)c1cc(Cl)c(OCCCl)c(Cl)c1 [Compound A41, N-(4-((4-(2-(3,5-Dichloro-4-(2-chloroethoxy)phenyl)propan-2-yl)phenoxy)methyl)pyrimidin-5-yl)methanesulfonamide] | ≥ 48 | < 5.70
CC(C)(c1ccc(OCc2ocnc2S(C)(=O)=O)cc1)c1cnc(NCCCl)nc1 [Compound A58] | 12 to 48 | < 5.70
CC(C)(c1ccc(OCCCl)c(Cl)c1)c1ccc(OCc2ocnc2S(C)(=O)=O)c(C#N)c1 [Compound A62] | < 12 | < 5.70
CC(C)(C)N(c1ccc(OCc2ocnc2S(C)(=O)=O)cc1)c1cc(Cl)c(OCCCl)c(Cl)c1 [Compound A31, N-tert-Butyl-3,5-dichloro-4-(2-chloroethoxy)-N-[4-[(4-methylsulfonyloxazol-5-yl)-methoxy]-phenyl]aniline] | 12 to 48 | > 6.30
CC(C)(c1ccc(OCc2ocnc2S(C)(=O)=O)cc1)c1cc(Cl)c(OCCN)c(Cl)c1 [Compound A53] | < 12 | < 5.70
CC(C)(c1ccc(OCc2ocnc2S(C)(=O)=O)cc1)c1cc(Cl)c(NCCCl)c(Cl)c1 [Compound A50] | 12 to 48 | 5.70 to 6.30
CC(C)(c1ccc(-n2cnc(CNS(C)(=O)=O)c2)cc1)c1cc(Cl)c(OCCCl)c(Cl)c1 [Compound A24] | < 12 | 5.70 to 6.30
COc1c(Cl)cc(C(C)(C)c2ccc(OCc3ocnc3S(C)(=O)=O)cc2)cc1Cl [Compound A56] | < 12 | 5.70 to 6.30
CC(C)(c1ccc(OCc2[nH]ncc2NS(C)(=O)=O)cc1)c1cc(Cl)c(OCCCl)c(Cl)c1 [Compound A40, N-[3-[[4-[1-[3,5-Dichloro-4-(2-chloroethoxy)phenyl]-1-methyl-ethyl]phenoxy]methyl]-1H-pyrazol-4-yl]methanesulfonamide] | 12 to 48 | 5.70 to 6.30
CC(C)(c1ccc(OCc2nc(NS(C)(=O)=O)nc3c2CCNC3)cc1)c1cc(Cl)c(OCCCl)c(C#N)c1 [Compound A191] |  | 5.70 to 6.30
CSc1nnc(COc2ccc(C(C)(C)c3cc(Cl)c(OCCCCl)c(Cl)c3)cc2)o1 [Compound A17] | < 12 | 5.70 to 6.30
CC(C)(c1ccc(OC2CCc3cnc(NS(C)(=O)=O)nc32)cc1)c1cc(Cl)c(OCCCl)c(C#N)c1 (centres unmarked) [Compound A203] |  | 5.70 to 6.30
CC(C)(c1ccc(OCc2nnc(S(C)(=O)=O)o2)cc1)c1cc(Cl)c(OCCCCl)c(Cl)c1 [Compound A7, 2-((4-(2-(3,5-dichloro-4-(3-chloropropoxy)phenyl)propan-2-yl)phenoxy)methyl)-5-(methylsulfonyl)-1,3,4-oxadiazole] | ≥ 48 | < 5.70
CC(C)(c1ccc(OCc2ccnc(NS(C)(=O)=O)n2)cc1)c1cc(F)c(OCCCl)c(C#N)c1 [Compound A205] |  | 5.70 to 6.30
CC(C)(c1ccc(-c2coc(CNS(C)(=O)=O)n2)cc1)c1cc(Cl)c(OCCCCl)c(Cl)c1 [Compound A21] | < 12 | 
CCOc1c(Cl)cc(C(C)(C)c2ccc(OCc3ocnc3S(C)(=O)=O)cc2)cc1Cl [Compound A52] | < 12 | < 5.70
CN1C(=O)N(Cc2ccc(C(C)(C)c3cc(Cl)c(OCCCl)c(Cl)c3)cc2C#N)C(=O)C1(C)C [Compound B8] | ≥ 48 | 5.70 to 6.30
CC(C)(c1ccc(Nc2ncc(CNS(C)(=O)=O)o2)cc1)c1cc(Cl)c(OCCCl)c(Cl)c1 [Compound A75, N-((2-((4-(2-(3,5-Dichloro-4-(2-chloroethoxy)phenyl)propan-2-yl)phenyl)amino)oxazol-5-yl)methyl)methanesulfonamide] | < 12 | 5.70 to 6.30
CC(C)(c1cc(Cl)c(OCCCl)c(Cl)c1)c1ccc(OCc2ocnc2S(C)(=O)=O)c(C(N)=O)c1 [Compound A76] | < 12 | 5.70 to 6.30
CC(C)(c1ccc(OCc2n[nH]cc2NS(=O)(=O)C(F)(F)F)cc1)c1cc(Cl)c(OCCCl)c(Cl)c1 [Compound A106] | 12 to 48 | > 6.30
CC(C)(c1ccc(OCc2nnc(O)o2)cc1)c1cc(Cl)c(OCCCCl)c(Cl)c1 [Compound A18] | ≥ 48 | < 5.70
Cc1nc(-c2ccc(C(C)(C)c3cc(Cl)c(OCCCCl)c(Cl)c3)cc2)co1 [Compound A64] | ≥ 48 | < 5.70
CC(C)(c1ccc(-c2cc(CNS(C)(=O)=O)on2)cc1)c1cc(Cl)c(OCCCCl)c(Cl)c1 [Compound A22, N-((3-(4-(2-(3,5-dichloro-4-(3-chloropropoxy)phenyl)propan-2-yl)phenyl) Isoxazol-5-yl)methyl)methanesulfonamide] | < 12 | < 5.70
CC(=O)Nc1cc(COc2ccc(C(C)(C)c3cc(Cl)c(OCCCCl)c(Cl)c3)cc2)on1 [Compound A23] | 12 to 48 | < 5.70
CC(C)(c1ccc(-c2c[nH]c(CNS(C)(=O)=O)n2)cc1)c1cc(Cl)c(OCCCCl)c(Cl)c1 [Compound A25] | < 12 | < 5.70
CC(C)(c1ccc(OCc2noc(S(C)(=O)=O)n2)cc1)c1cc(Cl)c(OCCCl)c(C#N)c1 [Compound A151] |  | 5.70 to 6.30
C[C@@](O)(c1ccc(OCc2ocnc2S(C)(=O)=O)cc1)c1cc(Cl)c(OCCCl)c(C#N)c1 [Compound A107] | 12 to 48 | < 5.70
CC(C)(c1ccc(OCc2cn(S(C)(=O)=O)cn2)cc1)c1cc(Cl)c(OCCCCl)c(Cl)c1 [Compound A5, 4-((4-(2-(3,5-dichloro-4-(3-chloropropoxy)phenyl)propan-2-yl)phenoxy)methyl)-1-(methylsulfonyl)-1H-imidazole] | < 12 | 5.70 to 6.30
